Drawing on ChEMBL document CHEMBL1134822, “Trifluoromethyl-containing 3-alkoxymethyl- and 3-aryloxymethyl-2-pyridinones are potent inhibitors of HIV-1 non-nucleoside reverse transcriptase” (Bioorg Med Chem Lett, 2001), this text covers IC50 and IC90 for 26 compounds.

Experiment [1] deals with Human immunodeficiency virus type 1 reverse transcriptase (Human immunodeficiency virus 1, UniProt Q72547). The experiment in a line: Inhibition of the NNRTI HIV-1 enzyme by 50% using enzyme assay.
Experiment [2] has as its system Human immunodeficiency virus 1. The experiment in a line: Antiviral activity against HIV-1 in MT-2 (human leukemia) cells in vitro. It is filed as functional.
The subject of experiment [3] is Human immunodeficiency virus type 1 reverse transcriptase (Human immunodeficiency virus 1), Q72547 [K103N,P225H].
In experiment [4] the test system is HIV-1 reverse transcriptase (Human immunodeficiency virus 1). The experiment in a line: Compound was evaluated for its ability to inhibit the mutant K103N V1081NNRTI HIV-1 enzyme.
Experiment [5] shares this test system. Description: Compound was evaluated for its ability to inhibit the mutant K103N NNRTI HIV-1 enzyme.
The test system is the same in experiment [6]. Description: Compound was evaluated for its ability to inhibit the NNRTI HIV-1 enzyme by 90% using whole cell assay.
The test system is the same in experiment [7]. Description: Compound was evaluated for its ability to inhibit the mutant K103N L1001 NNRTI HIV-1 enzyme.

pIC50: −log10 of the molar value.

As a reminder, the pIC50 is the IC50 on a negative log10 scale, so that one unit is a factor of ten. Broadly, the IC90 is the concentration needed for an effect of 90%. Low readings indicate an effect from little substance, high ones a need for much substance.

For `CCc1cc(C(C#CC2CC2)(OCC2CC2)C(F)(F)F)c(O)nc1C` (stereo not given), the negative-log IC50 (pIC50) in experiment [1] was 6.73. The compound also came in with an IC90 in experiment [2] of 37 nM.

`CCOC(C#CC1CC1)(c1cc(CC)c(C)nc1O)C(F)(F)F` (stereo not given): the pIC50 in experiment [1] was 6.74. Also, it took 95 nM to reach the 90% level in experiment [2] (IC90).

`Oc1ncccc1C(/C=C/C1CC1)(OCc1ccccc1)C(F)(F)F` (stereo not given) showed a pIC50 in experiment [1] of 4.78. In experiment [2], the IC90 is greater than 1400 nM.

The compound `CCc1cc(NCc2nc3c(Cl)ccc(Cl)c3o2)c(O)nc1C` [L-697661] yielded a 90% effect concentration (IC90) in experiment [2] of 50 nM.

Take `O=C1Nc2ccc(Cl)cc2[C@@](/C=C/C2CC2)(C(F)(F)F)N1`: the IC90 in experiment [3] turned out to be 140 nM; in experiment [4], 90 nM.

`Oc1ncccc1C(C#CC1CC1)(OCc1cccnc1)C(F)(F)F` (stereo not given) showed a negative-log IC50 (pIC50) in experiment [1] of 4.59. Moreover, the concentration for an effect of 90% (IC90) in experiment [2] was greater than 1440 nM.

Regarding `CCc1cc(C(C#CC2CC2)(OC)C(F)(F)F)c(O)nc1C` (stereo not given), in experiment [1], the negative logarithm of the IC50 (pIC50) was 6.11. The compound further gave a 90% effect concentration (IC90) in experiment [2] of 201 nM.

In experiment [1], `CCc1cc(C(C#CC2CC2)(OCc2c(F)cccc2F)C(F)(F)F)c(O)nc1C` (stereo not given) showed a pIC50 of 6.21. The concentration for an effect of 90% (IC90) in experiment [2] came out at 49 nM.

Regarding `CCCCOC(C#CC1CC1)(c1cc(CC)c(C)nc1O)C(F)(F)F` (stereo not given), in experiment [1], the negative-log IC50 (pIC50) was 6.89. It took 42 nM to reach the 90% level in experiment [2] (IC90).

The compound `CCCOC(C#CC1CC1)(c1cc(CC)c(C)nc1O)C(F)(F)F` (stereo not given) showed a pIC50 in experiment [1] of 6.98. In experiment [2], this compound returned an IC90 of 32 nM.

Regarding `CCc1cc(C(C#CC2CC2)(OCc2ccccc2)C(F)(F)F)c(O)nc1C` (stereo not given), the concentration for an effect of 90% (IC90) in experiment [3] is 283 nM; in experiment [5] it was 113 nM; in experiment [4], 1210 nM; in experiment [6], 46 nM; in experiment [7], 668 nM.

Compound `CCc1cc(C(C#CC2CC2)(OCc2c(F)cccc2OC)C(F)(F)F)c(O)nc1C` (stereo not given) showed a negative logarithm of the IC50 (pIC50) in experiment [1] of 5.71. The IC90 in experiment [2] came out at 160 nM.

Regarding `Oc1ncccc1C(C#CC1CC1)(OCc1ccccc1)C(F)(F)F` (stereo not given), in experiment [1], the negative-log IC50 (pIC50) was 4.93. Moreover, it took 182 nM to reach the 90% level in experiment [2] (IC90).

In experiment [1], `CCc1cc(C(C#CC2CC2)(OCc2c(F)cccc2Cl)C(F)(F)F)c(O)nc1C` (stereo not given) had a negative logarithm of the IC50 (pIC50) of 5.22. In addition, in experiment [2], the concentration for an effect of 90% (IC90) amounted to 61 nM.

Compound `Oc1ncccc1C(/C=C/c1ccccc1)(OCc1ccccc1)C(F)(F)F` (stereo not given) showed a pIC50 in experiment [1] of 4.36. Besides, the IC90 in experiment [2] is greater than 1300 nM.

As for `CCc1cc(C(C#CC2CC2)(OCc2ccc(Cl)cc2Cl)C(F)(F)F)c(O)nc1C` (stereo not given), the pIC50 in experiment [1] is 5.57. It took 190 nM to reach the 90% level in experiment [2] (IC90).

`Oc1ncccc1C(C#CC1CC1)(OCc1ccccn1)C(F)(F)F` (stereo not given): the negative logarithm of the IC50 (pIC50) in experiment [1] is 4.59. In experiment [2], the 90% effect level (IC90) was put at 1010 nM.

Turning to `CCc1cc(C(C#CC2CC2)(OCc2cc(OC)cc(OC)c2)C(F)(F)F)c(O)nc1C` (stereo not given), in experiment [1], the pIC50 is 5.42. Moreover, the 90% effect concentration (IC90) in experiment [2] came out at 579 nM.

On to `CCc1cc(C(C#CC2CC2)(OCc2c(Cl)cccc2Cl)C(F)(F)F)c(O)nc1C` (stereo not given), for which the negative-log IC50 (pIC50) in experiment [1] was 4.39. This compound also gave an IC90 in experiment [2] of 157 nM.

`CCc1cc(C(C#CC2CC2)(OCc2ccccc2)C(F)(F)F)c(=O)[nH]c1C` (stereo not given) had a negative logarithm of the IC50 (pIC50) in experiment [1] of 5.87.

`Oc1ncccc1C(C#CC1CC1)(OCc1ccncc1)C(F)(F)F` (stereo not given) gave a negative-log IC50 (pIC50) in experiment [1] of 5.09. The compound further registered a 90% effect concentration (IC90) in experiment [2] of 431 nM.

In experiment [1], `Oc1nc2ccccc2cc1C(C#CC1CC1)(OCc1ccccc1)C(F)(F)F` (stereo not given) gave a negative logarithm of the IC50 (pIC50) of 4.44. Besides, the 90% effect level in experiment [2] (IC90) was put at 579 nM.

`Oc1ncccc1C(C#Cc1ccccc1)(OCc1ccccc1)C(F)(F)F` (stereo not given) had a negative-log IC50 (pIC50) in experiment [1] of 4.93. Further, the IC90 in experiment [2] was greater than 1300 nM.

In experiment [1], `Oc1ncccc1C(C#CC1CC1)(Oc1cccc(Oc2ccccc2)c1)C(F)(F)F` (stereo not given) gave a negative-log IC50 (pIC50) of 4.61. The 90% effect concentration (IC90) in experiment [2] is greater than 1140 nM.

In the case of `O=C1Nc2ccc(Cl)cc2[C@@](C#CC2CC2)(C(F)(F)F)N1`, the concentration for an effect of 90% (IC90) in experiment [3] was found to be 73 nM; in experiment [5] it was 10 nM; in experiment [4] it was 38 nM; in experiment [6], 2 nM.

For `CCc1cc(C(C#CC2CC2)(OCC#N)C(F)(F)F)c(O)nc1C` (stereo not given), the negative-log IC50 (pIC50) in experiment [1] was 5.73. In addition, the IC90 in experiment [2] was 1400 nM.
